± gives the standard deviation of the averaged measurements.
What was measured:
Assay in all cases: relative viability vs DMSO control (72 h) (fraction); higher = more viable cells
SW872 = tested on: SW872
In short: (§1)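 A 5 µM positive control and 0.1% DMSO vehicle ran alongside sarcoma cell lines seeded in 384-well plates to reach 80–90% confluence. Serially diluted compound, 2.5 µl from source plates of 10 mM to 0.0002 mM, was added after 24 h, and the plates were held 72 h at 37 °C, 5% CO2. Relative viability was worked out from ATPLite readings as percent growth averaged over up to triplicate wells. The values were rescaled so that 1 is full and 0 is none.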

KHOS-240S = tested on: KHOS-240S
In short: as §1

SK-LMS-1 = tested on: SK-LMS-1
In short: as §1

SW1353 = tested on: SW1353
In short: as §1

RD-ES = tested on: RD-ES
In short: as §1

HT1080 = tested on: HT1080
In short: as §1

RD = tested on: RD
In short: as §1

SYO-1 = tested on: SYO-1
In short: as §1

G401 = tested on: G401
In short: as §1

HS729 = tested on: HS729
In short: as §1

SW684 = tested on: SW684
In short: as §1

KHOS-NP = tested on: KHOS-NP
In short: as §1

O=C(Nc1nc2cccc(-c3ccc(CN4CCS(=O)(=O)CC4)cc3)n2n1)C1CC1 [Filgotinib]
relative viability (SW872; 0.00017 µM): 1.07 ± 0.021 | relative viability (SW872; 0.00051 µM): 1.02 ± 0.015 | relative viability (SW872; 0.00152 µM): 1.05 ± 0.021 | relative viability (SW872; 0.00457 µM): 1.03 ± 0.024 | relative viability (SW872; 0.01372 µM): 1.04 ± 0.025 | relative viability (SW872; 0.04115 µM): 1.01 ± 0.031 | relative viability (SW872; 0.1235 µM): 1.02 ± 0.047 | relative viability (SW872; 0.3704 µM): 1.02 ± 0.037 | relative viability (SW872; 1.111 µM): 1.03 ± 0.043 | relative viability (SW872; 3.333 µM): 1.02 ± 0.044 | relative viability (SW872; 10 µM): 0.933 ± 0.098 | relative viability (KHOS-240S; 0.00017 µM): 1.04 ± 0.013 | relative viability (KHOS-240S; 0.00051 µM): 1.08 ± 0.038 | relative viability (KHOS-240S; 0.00152 µM): 1.06 ± 0.028 | relative viability (KHOS-240S; 0.00457 µM): 1.08 ± 0.033 | relative viability (KHOS-240S; 0.01372 µM): 1.07 ± 0.029 | relative viability (KHOS-240S; 0.04115 µM): 1.07 ± 0.027 | relative viability (KHOS-240S; 0.1235 µM): 1.03 ± 0.024 | relative viability (KHOS-240S; 0.3704 µM): 1.06 ± 0.024 | relative viability (KHOS-240S; 1.111 µM): 1.054 ± 0.0083 | relative viability (KHOS-240S; 3.333 µM): 1.02 ± 0.019 | relative viability (KHOS-240S; 10 µM): 0.932 ± 0.03 | relative viability (SK-LMS-1; 0.00017 µM): 1.06 ± 0.012 | relative viability (SK-LMS-1; 0.00051 µM): 1.08 ± 0.025 | relative viability (SK-LMS-1; 0.00152 µM): 1.06 ± 0.033 | relative viability (SK-LMS-1; 0.00457 µM): 1.06 ± 0.032 | relative viability (SK-LMS-1; 0.01372 µM): 1.06 ± 0.021 | relative viability (SK-LMS-1; 0.04115 µM): 1.08 ± 0.037 | relative viability (SK-LMS-1; 0.1235 µM): 1.05 ± 0.036 | relative viability (SK-LMS-1; 0.3704 µM): 1.05 ± 0.074 | relative viability (SK-LMS-1; 1.111 µM): 1.04 ± 0.055 | relative viability (SK-LMS-1; 3.333 µM): 1.02 ± 0.083 | relative viability (SK-LMS-1; 10 µM): 0.866 ± 0.013 | relative viability (SW1353; 0.00017 µM): 1.06 ± 0.028 | relative viability (SW1353; 0.00051 µM): 1.09 ± 0.047 | relative viability (SW1353; 0.00152 µM): 1.05 ± 0.05 | relative viability (SW1353; 0.00457 µM): 1.01 ± 0.015 | relative viability (SW1353; 0.01372 µM): 1.04 ± 0.024 | relative viability (SW1353; 0.04115 µM): 1 ± 0.036 | relative viability (SW1353; 0.1235 µM): 0.981 ± 0.053 | relative viability (SW1353; 0.3704 µM): 1.02 ± 0.057 | relative viability (SW1353; 1.111 µM): 1 ± 0.023 | relative viability (SW1353; 3.333 µM): 0.985 ± 0.019 | relative viability (SW1353; 10 µM): 0.968 ± 0.014 | relative viability (RD-ES; 0.00017 µM): 0.932 ± 0.05 | relative viability (RD-ES; 0.00051 µM): 0.886 ± 0.03 | relative viability (RD-ES; 0.00152 µM): 0.957 ± 0.033 | relative viability (RD-ES; 0.00457 µM): 0.946 ± 0.0095 | relative viability (RD-ES; 0.01372 µM): 0.928 ± 0.022 | relative viability (RD-ES; 0.04115 µM): 0.944 ± 0.014 | relative viability (RD-ES; 0.1235 µM): 0.949 ± 0.02 | relative viability (RD-ES; 0.3704 µM): 0.957 ± 0.014 | relative viability (RD-ES; 1.111 µM): 0.978 ± 0.037 | relative viability (RD-ES; 3.333 µM): 0.924 ± 0.043 | relative viability (RD-ES; 10 µM): 0.925 ± 0.013 | relative viability (HT1080; 0.00017 µM): 1.11 ± 0.031 | relative viability (HT1080; 0.00051 µM): 1.127 ± 0.01 | relative viability (HT1080; 0.00152 µM): 1.066 ± 0.0048 | relative viability (HT1080; 0.00457 µM): 1.06 ± 0.012 | relative viability (HT1080; 0.01372 µM): 1.08 ± 0.011 | relative viability (HT1080; 0.04115 µM): 1.1 ± 0.025 | relative viability (HT1080; 0.1235 µM): 1.08 ± 0.036 | relative viability (HT1080; 0.3704 µM): 1.12 ± 0.021 | relative viability (HT1080; 1.111 µM): 1.09 ± 0.085 | relative viability (HT1080; 3.333 µM): 1.13 ± 0.097 | relative viability (HT1080; 10 µM): 1.12 ± 0.021 | relative viability (RD; 0.00017 µM): 1.02 ± 0.053 | relative viability (RD; 0.00051 µM): 1.04 ± 0.062 | relative viability (RD; 0.00152 µM): 1.04 ± 0.066 | relative viability (RD; 0.00457 µM): 1.1 ± 0.037 | relative viability (RD; 0.01372 µM): 1.07 ± 0.042 | relative viability (RD; 0.04115 µM): 1.1 ± 0.065 | relative viability (RD; 0.1235 µM): 1.07 ± 0.086 | relative viability (RD; 0.3704 µM): 1.1 ± 0.049 | relative viability (RD; 1.111 µM): 1.1 ± 0.038 | relative viability (RD; 3.333 µM): 1.01 ± 0.011 | relative viability (RD; 10 µM): 0.846 ± 0.061 | relative viability (SYO-1; 0.00017 µM): 0.992 ± 0.029 | relative viability (SYO-1; 0.00051 µM): 0.995 ± 0.04 | relative viability (SYO-1; 0.00152 µM): 0.957 ± 0.042 | relative viability (SYO-1; 0.00457 µM): 0.97 ± 0.021 | relative viability (SYO-1; 0.01372 µM): 0.907 ± 0.051 | relative viability (SYO-1; 0.04115 µM): 0.903 ± 0.036 | relative viability (SYO-1; 0.1235 µM): 0.872 ± 0.032 | relative viability (SYO-1; 0.3704 µM): 0.843 ± 0.025 | relative viability (SYO-1; 1.111 µM): 0.7846 ± 0.007 | relative viability (SYO-1; 3.333 µM): 0.724 ± 0.0073 | relative viability (SYO-1; 10 µM): 0.551 ± 0.03 | relative viability (G401; 0.00017 µM): 0.988 ± 0.026 | relative viability (G401; 0.00051 µM): 1.04 ± 0.059 | relative viability (G401; 0.00152 µM): 1.027 ± 0.01 | relative viability (G401; 0.00457 µM): 1.03 ± 0.033 | relative viability (G401; 0.01372 µM): 1.01 ± 0.036 | relative viability (G401; 0.04115 µM): 0.995 ± 0.016 | relative viability (G401; 0.1235 µM): 1.04 ± 0.02 | relative viability (G401; 0.3704 µM): 1.01 ± 0.017 | relative viability (G401; 1.111 µM): 1.03 ± 0.048 | relative viability (G401; 3.333 µM): 1.01 ± 0.043 | relative viability (G401; 10 µM): 0.911 ± 0.059 | relative viability (HS729; 0.00017 µM): 1.04 ± 0.034 | relative viability (HS729; 0.00051 µM): 0.993 ± 0.058 | relative viability (HS729; 0.00152 µM): 0.953 ± 0.044 | relative viability (HS729; 0.00457 µM): 0.95 ± 0.015 | relative viability (HS729; 0.01372 µM): 0.938 ± 0.072 | relative viability (HS729; 0.04115 µM): 0.898 ± 0.031 | relative viability (HS729; 0.1235 µM): 0.888 ± 0.06 | relative viability (HS729; 0.3704 µM): 0.934 ± 0.079 | relative viability (HS729; 1.111 µM): 0.906 ± 0.11 | relative viability (HS729; 3.333 µM): 0.849 ± 0.009 | relative viability (HS729; 10 µM): 0.831 ± 0.037 | relative viability (SW684; 0.00017 µM): 1.13 ± 0.044 | relative viability (SW684; 0.00051 µM): 1.19 ± 0.031 | relative viability (SW684; 0.00152 µM): 1.211 ± 0.0088 | relative viability (SW684; 0.00457 µM): 1.19 ± 0.083 | relative viability (SW684; 0.01372 µM): 1.16 ± 0.036 | relative viability (SW684; 0.04115 µM): 1.19 ± 0.037 | relative viability (SW684; 0.1235 µM): 1.18 ± 0.012 | relative viability (SW684; 0.3704 µM): 1.19 ± 0.017 | relative viability (SW684; 1.111 µM): 1.18 ± 0.05 | relative viability (SW684; 3.333 µM): 1.16 ± 0.077 | relative viability (SW684; 10 µM): 1.09 ± 0.02 | relative viability (KHOS-NP; 0.00017 µM): 1.09 ± 0.019 | relative viability (KHOS-NP; 0.00051 µM): 1.12 ± 0.015 | relative viability (KHOS-NP; 0.00152 µM): 1.1 ± 0.037 | relative viability (KHOS-NP; 0.00457 µM): 1.101 ± 0.011 | relative viability (KHOS-NP; 0.01372 µM): 1.1 ± 0.027 | relative viability (KHOS-NP; 0.04115 µM): 1.1 ± 0.03 | relative viability (KHOS-NP; 0.1235 µM): 1.085 ± 0.0096 | relative viability (KHOS-NP; 0.3704 µM): 1.085 ± 0.0076 | relative viability (KHOS-NP; 1.111 µM): 1.08 ± 0.043 | relative viability (KHOS-NP; 3.333 µM): 1.1 ± 0.027 | relative viability (KHOS-NP; 10 µM): 1.09 ± 0.069

Reference: the supplement of paper PMC10883282
